From patent US20230245725A1, “Means and Methods for the Prediction of Amyloid Core Sequences” (VIB VZW, priority 2020, published 2023)

Experiments:
Apo-AI = target: T1, Apo-AI (Homo sapiens, UniProt P02647); experiment: Th-T kinetics and endpoint fluorescence analysis of ApoA-I APR variant peptides; type: biochemical; conditions: triplicate
T1 construct: Endpoint fluorescence analysis; made in house; host or cells: solid phase peptide synthesis (no expression host)
Experimental: The Th-T kinetics (see FIGS. 12A and 12B) and the endpoint fluorescence analysis (see FIG. 11) were performed in triplicate for the peptides depicted in Table 5.
The Th-T kinetics (see FIGS. 13A and 13B) and the endpoint fluorescence analysis (see FIG. 11) were performed in triplicate for the peptides depicted in Table 6.
(§1) Amyloid aggregation was monitored using fluorescent spectroscopy binding assays. Th-T (Sigma) or pFTAA (Ebba Biotech AB) was added in half-area black 96-well microplates (Corning, USA) at a final concentration of 25 μM and 0.5 μM, respectively. Fluorescence intensity was measured in replicates (n=6) using a PolarStar Optima and a FluoStar Omega plate reader (BMG Labtech, Germany), equipped with an excitation filter at 440 nm and emission filters at 480 nm and 510 nm, respectively.

[1] = Amyloid-forming properties of the peptide screen (overall call from Th-T, pFTAA, TEM); type: physicochemical; conditions: overall amyloid-forming call
Text: In the interest of improving the current description of the familiar amyloidogenic protein dataset, we selected and synthesised a subset of 96 peptides corresponding to strong aggregation prone regions identified in these proteins by Cordax. Apart of prediction strength, the peptide screen was also selectively constructed to ensure broad sequence variability and a wide distribution on the proteins of the dataset, with a preference for longer entries defined by inadequate previous characterisation. Peptide sequences were cross-checked and filtered to exclude overlapping sequences with previously identified amyloid regions and WALTZ-DB (see Table 2). The remaining selection of 96 peptides were synthesized using standard solid phase synthesis and their amyloid-forming properties were initially examined using Thioflavin-T (Th-T) or pFTAA binding, following rotating incubation for 5 days at room temperature. The binding assays are complementary, as Th-T and pFTAA are opposingly charged molecules, which increases the amyloid identification rate by overcoming cases of dye-specific failure to bind to amyloid surfaces based on charge repulsion. Under these conditions, 66 peptides successfully bind the specific dyes (FIGS. 3a & 3b) by forming fibrils with typical amyloid morphologies and properties that were verified using transmission electron microscopy (FIG. 3c) and Congo red staining for selected cases (FIG. 3d). As these dyes are known to yield false negatives, in particular for short peptides, all dye-negative peptides were further investigated using electron microscopy. During this scan, we recovered 19 additional sequences that were capable of forming sparse amyloid-like fibrils with shorter lengths (see FIG. 8). […]
(§2) Peptides derived from the Cordax validation set were synthesized using an Intavis Multipep RSi solid phase peptide synthesis robot. Peptide purity (>90%) was evaluated using RP-HPLC purification protocols and peptides were stored as ether precipitates (−20° C.). Peptide stocks were initially treated with 1,1,1,3,3,3-hexafluoro-isopropanol (HFIP) (Merck), then dissolved in traces of dimethyl sulfoxide (DMSO) (Merck) (<5%), filtered through 0.2 μm filters and finally in milli-Q water to reach a final concentration of 200 μM or up to 1 mM for dye-negative peptides. Dithiothreitol (DTT) (1 mM) was included in solutions of peptides spanning cysteine or methionine residues. All peptides were incubated at room temperature for a period of 5 days on a rotating wheel.
as §1
(§3) Peptide solutions were incubated for 5 days at room temperature in order to form mature amyloid-like fibrils. Suspensions (5 μL) of each peptide solution were added on 400-mesh carbon-coated copper grids (Agar Scientific Ltd., England), following a glow-discharging step of 30 s to improve sample adsorption. Grids were washed with milli-Q water and negatively stained using uranyl acetate (2% w/v in milli-Q water). Grids were examined with a JEM-1400 120 kV transmission electron microscope (JEOL, Japan), operated at […].

[2] = Thioflavin-T binding assay of synthetic peptides; type: physicochemical; conditions: 200 μM peptide, rotation 5 days, room temperature; Th-T 25 μM
Text: (§4) In the interest of improving the current description of the familiar amyloidogenic protein dataset, we selected and synthesised a subset of 96 peptides corresponding to strong aggregation prone regions identified in these proteins by Cordax. Apart of prediction strength, the peptide screen was also selectively constructed to ensure broad sequence variability and a wide distribution on the proteins of the dataset, with a preference for longer entries defined by inadequate previous characterisation. Peptide sequences were cross-checked and filtered to exclude overlapping sequences with previously identified amyloid regions and WALTZ-DB (see Table 2). The remaining selection of 96 peptides were synthesized using standard solid phase synthesis and their amyloid-forming properties were initially examined using Thioflavin-T (Th-T) or pFTAA binding, following rotating incubation for 5 days at room temperature. The binding assays are complementary, as Th-T and pFTAA are opposingly charged molecules, which increases the amyloid identification rate by overcoming cases of dye-specific failure to bind to amyloid surfaces based on charge repulsion. Under these conditions, 66 peptides successfully bind the specific dyes (FIGS. 3a & 3b) by forming fibrils with typical amyloid morphologies and properties that were verified using transmission electron microscopy (FIG. 3c) and Congo red staining for selected cases (FIG. 3d). As these dyes are known to yield false negatives, in particular for short peptides, all dye-negative peptides were further investigated using electron microscopy. During this scan, we recovered 19 additional sequences that were capable of forming sparse amyloid-like fibrils with shorter lengths (see FIG. 8).
as §2, §1

[3] = pFTAA binding assay of synthetic peptides; type: physicochemical; conditions: 200 μM peptide, rotation 5 days, room temperature; pFTAA 0.5 μM
Text: as §4, §2, §1

[4] = Transmission electron microscopy of peptide fibrils; type: physicochemical; conditions: amyloid-like fibrils after 5 days at room temperature
Text: as §4, §3

| Substance | capping peptide: prevent the aggregation of Apo-AI (Apo-AI) | Amyloid [1] | Th-T Binding [2] | pFTAA Binding [3] | TEM [4] | induce the aggregation of Apo-AI (Apo-AI) |
| --- | --- | --- | --- | --- | --- | --- |
| LAIVYV (Aggregation inducer) [SEQ ID NO: 182, candidate aggregation inducing variant of ApoA-I APR] | – | – | – | – | – | most performant peptides which can induce the aggregation of Apo-AI |
| LLTVYV (Aggregation inducer) [SEQ ID NO: 178, candidate aggregation inducing variant of ApoA-I APR] | – | – | – | – | – | most performant peptides which can induce the aggregation of Apo-AI |
| NFSIRY | – | ● | ● | ● | ● | – |

The next lines start with results.

| capping peptide: prevent the aggregation of Apo-AI (Apo-AI) | Amyloid [1] | Th-T Binding [2] | pFTAA Binding [3] | TEM [4] | Substance | induce the aggregation of Apo-AI (Apo-AI) |
| --- | --- | --- | --- | --- | --- | --- |
| most performant capping peptides | – | – | – | – | LWTVYV (Capping peptide) [SEQ ID NO: 175, candidate capping peptide variant of ApoA-I APR] | – |
| most performant capping peptides | – | – | – | – | LYTVYV (Capping peptide) [SEQ ID NO: 176, candidate capping peptide variant of ApoA-I APR] | – |
| – | ● | ● | ● | ● | YDLHYW | – |
